Data on 1 compound can be found in patent US20160009752A1, “[…]-OXIMINO-AMINOALKYLETHERS AND PROCESS FOR PREPARATION THEREOF, USEFUL AS ANTIDIABETIC AND […] AGENTS” (COUNCIL OF SCIENTIFIC & INDUSTRIAL RESEARCH, priority 2013, published 2016).

Molecules are shown by their SMILES.

Series [1] can be described thus: Stability in simulated gastric and intestinal fluid. It is filed as in vitro ADME.
For the next series, the system named is db/+ mice. The series is described as follows: OGTT in glucose loaded db/+ mice. It is filed as in vivo. The protocol:
Male C57BL6-db/+ mice (12-18 week old, 18-20 g body weight) were procured from National Animal Laboratory Centre (NALC) of Central Drug Research Institute (CDRI), Lucknow, India Animals were housed in polypropylene cages, in controlled environment (temperature 25±2° C.; humidity 50-60%; light 300 lux at floor level with regular 12 h light-12 h dark cycle; noise level 50 decibel; ventilation 10-15 air changes per hour). They were provided with a standard laboratory diet (Dayal Industry, Barabanki, Lucknow) unless stated otherwise and has free access to water. The mice having fasting blood glucose values varying between 65-80 mg/dl were finally included in this study. Animals were divided into groups consisting of six animals in each. Group one was considered as control group, where as the other groups were termed as experimental groups. Rats of experimental groups were given the desired doses of the test samples i.e. 5, 10, 20, 30 and 50 mg/kg body weight. The test samples were always prepared in the vehicle 1% gum acacia. An oral glucose load of 3.0 g/kg was given to the animals of all the groups 30 min post administration of the test samples/vehicle. Blood glucose levels of the animals of all the groups were again measured at 30, 60, 90 and 120 min post glucose load. Food (not water) was removed from the cages during the experimental period. […] Comparing the AUC of test sample treated to that of control group determined the percent improvement in OGTT by test sample which is termed as anti-hyperglycaemic activity. Statistical comparison between the groups was done by employing Students t test.

In the case of `C/C(=N\OCCN1CCCCC1)[C@H]1CC[C@H]2[C@@H]3CC=C4C[C@@H](O)CC[C@]4(C)[C@H]3CC[C@]12C` [Compound 14b, 3β-Hydroxy-pregna-5-en-20-one-O-(2-piperidin-1-yl-ethyl)-oxime], the “stability in simulated gastric fluid (SGF)” value in series [1] (SGF) is “low stability”. Besides, the “stability in simulated intestinal fluid (SIF)” value in series [1] (SIF) is reported as “good stability”. In addition, the “% Antihyperglycaemic activity (OGTT improvement)” value in the series on db/+ mice (5 mg/kg) came out at 10.5%; in the series on db/+ mice (10 mg/kg), 19.8%; in the series with db/+ mice (20 mg/kg), 24.5%; in the series on db/+ mice (30 mg/kg), 28.9%; in the series on db/+ mice (50 mg/kg) it was 35.9%.
